Experimental data: US20160113919A1 (The Board of Trustees of the Leland Stanford Junior …, priority 2014, published 2016)

Tested on: INH-resistant ΔkatG H37Rv
Assay: microbe, parasite or virus in culture
Format: cell-based, Mycobacterium tuberculosis

**Q.** Which “EC80 against ΔkatG H37Rv” value does the source give for `CCN(CC)CCCC(C)Nc1ccnc2cc(Cl)ccc12` (racemic) [racemic CQ, chloroquine] here?
**A.** ~50 µM

**Q.** Which “EC80 against ΔkatG H37Rv” value does the source give for `CCN(CC)CCC[C@@H](C)Nc1ccnc2cc(Cl)ccc12` [R-CQ, (R)-chloroquine] here?
**A.** 1 µM

**Q.** And the “microbicidal capacity compared with S-CQ or racemic CQ” value?
**A.** significantly higher

**Q.** `CCN(CC)CCC[C@H](C)Nc1ccnc2cc(Cl)ccc12` [S-CQ, (S)-chloroquine] was tested. Which inhibition at 50 µM (Mycobacterium tuberculosis, H37RV, RAW264.7) did it give?
**A.** 60%
